Organism: Rattus norvegicus
Test: Open TG-GATES - Regimen: Single
Type: toxicity, organism-based, Sprague-Dawley
Design: regimen Single, gender Male, age 6 weeks
Details: in vivo, ip, route intraperitoneal injection; for Bas / Eos / Ht / Lym / MCHC / MCV / Mono / Neu / PT / Plat / RBC / Ret / WBC / APTT / Fbg / Hb / MCH: tissue Blood; for KIDNEY_L / KIDNEY_R / KIDNEY_TOTAL: tissue Kidney; for LIVER: tissue Liver; for ALP / ALT / AST / BUN / CRE / DBIL / IP / K / LDH / PL / RALB / TBIL / TC / TG / TP / gamma-GTP / GLC / Ca / Na: tissue Plasma
[1] = 0 mg/kg, 3 h, dose 0 ug/Kg, dose level Control
[2] = 0 mg/kg, 6 h, dose 0 ug/Kg, dose level Control
[3] = 0 mg/kg, 9 h, dose 0 ug/Kg, dose level Control
[4] = 0 mg/kg, 24 h, dose 0 ug/Kg, dose level Control
[5] = 0.01 mg/kg, 3 h, dose 10 ug/Kg, dose level Low
[6] = 0.01 mg/kg, 6 h, dose 10 ug/Kg, dose level Low
[7] = 0.01 mg/kg, 9 h, dose 10 ug/Kg, dose level Low
[8] = 0.01 mg/kg, 24 h, dose 10 ug/Kg, dose level Low

Substance: LPS
- TERMINAL_BW [1]: 194.6 g
- Bas [1]: 0.3%
- Eos [1]: 0.7%
- Ht [1]: 40.7%
- Lym [1]: 72%
- MCHC [1]: 32.8%
- MCV [1]: 63.3 fL
- Mono [1]: 4%
- Neu [1]: 21.3%
- PT [1]: 15.7 s
- Plat [1]: 123.5 x10_4/uL
- RBC [1]: 644.3 x10_4/ul
- Ret [1]: 9.4%
- WBC [1]: 91.5 x10_2/uL
- KIDNEY_L [1]: 0.9 g
- KIDNEY_R [1]: 0.9 g
- KIDNEY_TOTAL [1]: 1.8 g
- LIVER [1]: 8.6 g
- ALP [1]: 1094.7 IU/L
- ALT [1]: 41.7 IU/L
- AST [1]: 78.3 IU/L
- BUN [1]: 8.7 mg/dL
- CRE [1]: 0.2 mg/dL
- DBIL [1]: 0.01 mg/dL
- IP [1]: 9.2 mg/dL
- K [1]: 4 meq/L
- LDH [1]: 110 IU/L
- PL [1]: 136.3 mg/dL
- RALB [1]: 2.5 g/dL
- TBIL [1]: 0.0467 mg/dL
- TC [1]: 76 mg/dL
- TG [1]: 41.3 mg/dL
- TP [1]: 5.3 g/dL
- gamma-GTP [1]: 1 IU/L
- TERMINAL_BW [2]: 195.4 g
- APTT [2]: 18.1 s
- Bas [2]: 0%
- Eos [2]: 0.3%
- Fbg [2]: 298.7 mg/dL
- Hb [2]: 12.9 g/dL
- Ht [2]: 39.5%
- Lym [2]: 71.3%
- MCHC [2]: 32.6%
- MCV [2]: 65.8 fL
- Mono [2]: 2.3%
- Neu [2]: 25%
- PT [2]: 15.7 s
- Plat [2]: 114.9 x10_4/uL
- RBC [2]: 601.3 x10_4/ul
- Ret [2]: 9.6%
- WBC [2]: 101.7 x10_2/uL
- KIDNEY_L [2]: 0.9 g
- KIDNEY_R [2]: 0.9 g
- KIDNEY_TOTAL [2]: 1.7 g
- LIVER [2]: 7.9 g
- ALP [2]: 1269.3 IU/L
- ALT [2]: 37.7 IU/L
- AST [2]: 75.7 IU/L
- BUN [2]: 7.3 mg/dL
- CRE [2]: 0.2 mg/dL
- DBIL [2]: 0.01 mg/dL
- GLC [2]: 178.3 mg/dL
- IP [2]: 10 mg/dL
- K [2]: 3.7 meq/L
- LDH [2]: 74 IU/L
- PL [2]: 138.7 mg/dL
- RALB [2]: 2.5 g/dL
- TBIL [2]: 0.0433 mg/dL
- TC [2]: 79.3 mg/dL
- TG [2]: 24.7 mg/dL
- TP [2]: 5.4 g/dL
- gamma-GTP [2]: 1 IU/L
- TERMINAL_BW [3]: 191.3 g
- APTT [3]: 17.1 s
- Bas [3]: 0%
- Eos [3]: 1%
- Fbg [3]: 304.3 mg/dL
- Ht [3]: 38.4%
- Lym [3]: 63.3%
- MCHC [3]: 32.8%
- Mono [3]: 2%
- Neu [3]: 33.7%
- Plat [3]: 116.1 x10_4/uL
- RBC [3]: 624 x10_4/ul
- Ret [3]: 8.1%
- WBC [3]: 71.4 x10_2/uL
- KIDNEY_L [3]: 0.9 g
- KIDNEY_R [3]: 0.9 g
- KIDNEY_TOTAL [3]: 1.8 g
- LIVER [3]: 7 g
- ALP [3]: 1080.7 IU/L
- ALT [3]: 48 IU/L
- AST [3]: 79 IU/L
- BUN [3]: 8.3 mg/dL
- CRE [3]: 0.2 mg/dL
- Ca [3]: 10 mg/dL
- DBIL [3]: 0.0033 mg/dL
- GLC [3]: 165 mg/dL
- IP [3]: 9.5 mg/dL
- K [3]: 3.8 meq/L
- LDH [3]: 53.7 IU/L
- PL [3]: 124.7 mg/dL
- RALB [3]: 2.4 g/dL
- TBIL [3]: 0.0467 mg/dL
- TC [3]: 73.3 mg/dL
- TG [3]: 13.3 mg/dL
- TP [3]: 5.2 g/dL
- gamma-GTP [3]: 1 IU/L
- TERMINAL_BW [4]: 209.1 g
- Bas [4]: 0.3%
- Eos [4]: 1.3%
- Fbg [4]: 302.3 mg/dL
- Hb [4]: 12.9 g/dL
- Ht [4]: 39.4%
- Lym [4]: 76.3%
- MCH [4]: 21 pg
- MCHC [4]: 32.8%
- MCV [4]: 64 fL
- Mono [4]: 3.7%
- Neu [4]: 17.3%
- PT [4]: 15.2 s
- Plat [4]: 115.4 x10_4/uL
- RBC [4]: 616.3 x10_4/ul
- Ret [4]: 8.6%
- WBC [4]: 115.5 x10_2/uL
- KIDNEY_L [4]: 0.9 g
- KIDNEY_R [4]: 0.9 g
- KIDNEY_TOTAL [4]: 1.8 g
- LIVER [4]: 9.7 g
- ALP [4]: 1572.7 IU/L
- ALT [4]: 48.3 IU/L
- AST [4]: 78 IU/L
- BUN [4]: 15 mg/dL
- CRE [4]: 0.2 mg/dL
- DBIL [4]: 0.01 mg/dL
- GLC [4]: 170.7 mg/dL
- IP [4]: 8.6 mg/dL
- K [4]: 4.4 meq/L
- LDH [4]: 86.7 IU/L
- PL [4]: 171.3 mg/dL
- RALB [4]: 2.6 g/dL
- TBIL [4]: 0.0533 mg/dL
- TC [4]: 98.7 mg/dL
- TG [4]: 55.3 mg/dL
- TP [4]: 5.7 g/dL
- gamma-GTP [4]: 1 IU/L
- TERMINAL_BW [5]: 192 g
- Bas [5]: 0%
- Eos [5]: 0%
- Fbg [5]: 249 mg/dL
- Hb [5]: 12.9 g/dL
- Lym [5]: 66%
- MCH [5]: 21 pg
- MCHC [5]: 32.9%
- MCV [5]: 63.9 fL
- Mono [5]: 2.3%
- Neu [5]: 30.3%
- PT [5]: 15.6 s
- Plat [5]: 106.2 x10_4/uL
- RBC [5]: 614.3 x10_4/ul
- Ret [5]: 9.4%
- WBC [5]: 59.5 x10_2/uL
- KIDNEY_L [5]: 0.9 g
- KIDNEY_R [5]: 0.9 g
- KIDNEY_TOTAL [5]: 1.8 g
- LIVER [5]: 8.5 g
- ALP [5]: 1371 IU/L
- ALT [5]: 39.3 IU/L
- AST [5]: 80.7 IU/L
- BUN [5]: 9.3 mg/dL
- CRE [5]: 0.2 mg/dL
- DBIL [5]: 0.0033 mg/dL
- GLC [5]: 151.7 mg/dL
- IP [5]: 9.1 mg/dL
- K [5]: 3.9 meq/L
- LDH [5]: 87.7 IU/L
- PL [5]: 141.3 mg/dL
- RALB [5]: 2.4 g/dL
- TBIL [5]: 0.0433 mg/dL
- TC [5]: 75.3 mg/dL
- TG [5]: 50.7 mg/dL
- TP [5]: 5.2 g/dL
- gamma-GTP [5]: 0.7 IU/L
- TERMINAL_BW [6]: 188.9 g
- APTT [6]: 20.9 s
- Bas [6]: 0%
- Eos [6]: 1%
- Fbg [6]: 308 mg/dL
- Ht [6]: 40.2%
- Lym [6]: 27%
- MCH [6]: 21 pg
- MCV [6]: 63.3 fL
- Mono [6]: 1%
- Neu [6]: 71%
- Plat [6]: 84.5 x10_4/uL
- RBC [6]: 634.3 x10_4/ul
- Ret [6]: 7.8%
- WBC [6]: 67.1 x10_2/uL
- KIDNEY_L [6]: 0.9 g
- KIDNEY_R [6]: 0.9 g
- KIDNEY_TOTAL [6]: 1.7 g
- LIVER [6]: 7.6 g
- ALP [6]: 1287.3 IU/L
- ALT [6]: 58.7 IU/L
- AST [6]: 96.7 IU/L
- BUN [6]: 8.3 mg/dL
- CRE [6]: 0.2 mg/dL
- Ca [6]: 9.9 mg/dL
- DBIL [6]: 0.0167 mg/dL
- GLC [6]: 150.7 mg/dL
- IP [6]: 9.5 mg/dL
- K [6]: 3.9 meq/L
- LDH [6]: 75.3 IU/L
- Na [6]: 139.7 meq/L
- PL [6]: 154.3 mg/dL
- RALB [6]: 2.5 g/dL
- TBIL [6]: 0.0667 mg/dL
- TC [6]: 91.7 mg/dL
- TG [6]: 27.3 mg/dL
- TP [6]: 5.4 g/dL
- gamma-GTP [6]: 1.7 IU/L
- TERMINAL_BW [7]: 187.9 g
- APTT [7]: 16.6 s
- Bas [7]: 0%
- Eos [7]: 0%
- Fbg [7]: 373 mg/dL
- Ht [7]: 40.9%
- Lym [7]: 58.3%
- MCHC [7]: 33%
- MCV [7]: 64.5 fL
- Mono [7]: 2%
- Neu [7]: 38.7%
- PT [7]: 16 s
- Plat [7]: 105.1 x10_4/uL
- RBC [7]: 633.7 x10_4/ul
- Ret [7]: 8.7%
- WBC [7]: 86.6 x10_2/uL
- KIDNEY_L [7]: 0.9 g
- KIDNEY_R [7]: 0.8 g
- KIDNEY_TOTAL [7]: 1.7 g
- LIVER [7]: 7.1 g
- ALP [7]: 1456.3 IU/L
- ALT [7]: 37 IU/L
- AST [7]: 77.3 IU/L
- BUN [7]: 6.7 mg/dL
- CRE [7]: 0.2 mg/dL
- DBIL [7]: 0.0067 mg/dL
- GLC [7]: 162.7 mg/dL
- IP [7]: 9.8 mg/dL
- K [7]: 3.6 meq/L
- LDH [7]: 61 IU/L
- Na [7]: 143.7 meq/L
- PL [7]: 151 mg/dL
- RALB [7]: 2.5 g/dL
- TBIL [7]: 0.0567 mg/dL
- TC [7]: 89 mg/dL
- TG [7]: 21 mg/dL
- TP [7]: 5.4 g/dL
- gamma-GTP [7]: 1 IU/L
- TERMINAL_BW [8]: 198.5 g
- Bas [8]: 0%
- Eos [8]: 1%
- Fbg [8]: 435.3 mg/dL
- Hb [8]: 13.6 g/dL
- Lym [8]: 66.3%
- MCH [8]: 21 pg
- MCHC [8]: 32.7%
- MCV [8]: 64.2 fL
- Mono [8]: 2.3%
- Neu [8]: 29%
- PT [8]: 14.6 s
- Plat [8]: 77.7 x10_4/uL
- RBC [8]: 646.7 x10_4/ul
- Ret [8]: 7.3%
- WBC [8]: 85.5 x10_2/uL
- KIDNEY_L [8]: 0.9 g
- KIDNEY_R [8]: 0.9 g
- KIDNEY_TOTAL [8]: 1.8 g
- LIVER [8]: 9.1 g
- ALP [8]: 2203 IU/L
- ALT [8]: 39.3 IU/L
- AST [8]: 71.7 IU/L
- BUN [8]: 16.3 mg/dL
- CRE [8]: 0.2 mg/dL
- DBIL [8]: 0.01 mg/dL
- GLC [8]: 189 mg/dL
- IP [8]: 8.8 mg/dL
- K [8]: 4.5 meq/L
- LDH [8]: 77.3 IU/L
- PL [8]: 168 mg/dL
- RALB [8]: 2.6 g/dL
- TBIL [8]: 0.0633 mg/dL
- TC [8]: 94.7 mg/dL
- TG [8]: 52.3 mg/dL
- TP [8]: 5.6 g/dL
- gamma-GTP [8]: 1 IU/L
- TERMINAL_BW (0.3 mg/kg, 3 h, dose 300 ug/Kg, dose level Middle): 194.5 g

Source: ChEMBL document CHEMBL3885861, “Open TG-GATES”
